Structures are written as SMILES. Where two headings read alike, the source gives them in different places.

The test concerns test plant species. As to the kind of experiment: Post-emergent herbicidal activity test (greenhouse, foliar spray, visual growth reduction). The class given is in vivo. The following applies: post-emergence, 336 h, 140 g ai/ha, 14 days after application. As for the experimental part: Post-emergent Test: Seeds or nutlets of the desired test plant species were planted in Sun Gro Metro-Mix® 360 planting mixture, which typically has a pH of 6.0 to 6.8 and an organic matter content of about 30 percent, in plastic pots with a surface area of 64 square centimeters. In some aspects, to ensure good germination and healthy plants, a fungicide treatment and/or other chemical or physical treatment was applied. The plants were grown for 7-21 d in a greenhouse with an approximate 15 h photoperiod which was maintained at 23-29° C. during the day and 22-28° C. during the night. Nutrients and water were added on a regular basis and supplemental lighting was provided with overhead metal halide 1000-Watt lamps as necessary. Plants were used for testing when they reached the first or second true leaf stage. A weighed amount, determined by the highest rate to be tested, of each test compound was placed in a 25 mL glass vial and was dissolved in 4 mL of a 97:3 v/v mixture of acetone and DMSO to obtain concentrated stock solutions. […] The concentrated stock solutions obtained were diluted with 20 mL of an aqueous mixture containing acetone, water, isopropyl alcohol, DMSO, […] crop oil concentrate, and X-77 surfactant in a 48.5:39:10:1.5:1.0:0.02 v/v ratio to obtain spray solutions containing the application rate. Compound requirements are based upon a 12 mL application volume at a rate of 187 liters per hectare (L/ha). Formulated compounds were applied to the plant material with an overhead Mandel track sprayer equipped with […] nozzles calibrated to deliver 187 L/ha over an application area of 0.64 square meters at a spray height of 18 inches (43 cm) above the average plant canopy height. Control plants were sprayed in the same manner with the solvent blank. The treated plants and control plants were placed in a greenhouse as described above and watered by subirrigation to prevent wash-off of the test compounds. After 14 d, the condition of the test plants as compared with that of the nontreated and control plants was determined visually and scored on a scale of 0 to 100 percent where 0 corresponds to no injury and 100 corresponds to complete control. In the reporting of the results, Table A: Percent Growth Reduction Conversion Table was used.

[1] abbreviates: ALOMY: blackgrass (Alopecurus myosuroides), read-out: Visual Growth Reduction (%) 14 Days After Application, ALOMY.
The mark [2] stands for this setting: AMARE: redroot pigweed (Amaranthus retroflexus), read-out: Visual Growth Reduction (%) 14 Days After Application, AMARE.
Where [3] appears, read: AVEFA: wild oat (Avena fatua), read-out: Visual Growth Reduction (%) 14 Days After Application, AVEFA.
Setting [4] is: CHEAL: lambsquarters (Chenopodium album), read-out: Visual Growth Reduction (%) 14 Days After Application, CHEAL.
[5] abbreviates: CIRAR: canada thistle (Cirsium arvense), read-out: Visual Growth Reduction (%) 14 Days After Application, CIRAR.
Where [6] appears, read: CYPES: yellow nutsedge (Cyperus esculentus), read-out: Visual Growth Reduction (%) 14 Days After Application, CYPES.
The mark [7] stands for this setting: DIGSA: crabgrass (Digitaria sanguinalis), read-out: Visual Growth Reduction (%) 14 Days After Application, DIGSA.
Where [8] appears, read: ECHCG: barnyardgrass (Echinochloa crus-galli), read-out: Visual Growth Reduction (%) 14 Days After Application, ECHCG.
Setting [9] is: IPOHE: ivy-leaf morning glory (Ipomoea hederacea), read-out: Visual Growth Reduction (%) 14 Days After Application, IPOHE.
The mark [10] stands for this setting: KCHSC: kochia (Bassia scoparia), read-out: Visual Growth Reduction (%) 14 Days After Application, KCHSC.
Where [11] appears, read: ORYSA: rice (Oryza sativa), read-out: Visual Growth Reduction (%) 14 Days After Application, ORYSA.
The mark [12] stands for this setting: SETFA: giant foxtail (Setaria faberi), read-out: Visual Growth Reduction (%) 14 Days After Application, SETFA.
Setting [13] is: SORVU: grain sorghum (Sorghum vulgare), read-out: Visual Growth Reduction (%) 14 Days After Application, SORVU.
Where [14] appears, read: STEME: common chickweed (Stellaria media), read-out: Visual Growth Reduction (%) 14 Days After Application, STEME.
Setting [15] is: TRZAS: wheat, spring (Triticum aestivum), read-out: Visual Growth Reduction (%) 14 Days After Application, TRZAS.

Take `COC(=O)c1nc(-c2ccc(C(F)(F)F)cc2C)ccc1Cl` [F29, Methyl 3-chloro-6-(2-methyl-4-(trifluoromethyl)phenyl)picolinate]: the pest or weed control at 140 g/ha was in the range of 0 to 29% under setting [1]; 60 to 74% under setting [2]; 0 to 29% under setting [3]; 60 to 74% under setting [4]; 0 to 29% under setting [5]; 0 to 29% under setting [6]. Further, the pest or weed control at 140 g/ha was in the range of 45 to 59% under setting [7]; 0 to 29% under setting [8]; 95 to 100% under setting [9]; 0 to 29% under setting [10]; 0 to 29% under setting [11]; 0 to 29% under setting [12]. The pest or weed control at 140 g/ha under setting [13] is 60 to 74%, the pest or weed control at 140 g/ha under setting [14] lay in the range of 0 to 29% and the pest or weed control at 140 g/ha under setting [15] was 0 to 29%.
For the compound `COC(=O)c1nc(-c2ccc(C(F)(F)F)cc2Br)ccc1Cl` [F30, Methyl 6-(2-bromo-4-trifluoromethyl)phenyl-3-chloropicolinate], the pest or weed control at 140 g/ha is 60 to 74% under setting [1]; 95 to 100% under setting [2]; 45 to 59% under setting [3]; 95 to 100% under setting [4]; 85 to 94% under setting [5]; 0 to 29% under setting [6]. Also, the pest or weed control at 140 g/ha was 85 to 94% under setting [7]; 45 to 59% under setting [8]; 95 to 100% under setting [9]; 75 to 84% under setting [10]; 0 to 29% under setting [11]; 45 to 59% under setting [12]. Also, the pest or weed control at 140 g/ha reads like this: under setting [13], 85 to 94%; under setting [14], 0 to 29%; under setting [15], 60 to 74%.
Regarding `C#Cc1ccc(-c2ccc(C(F)(F)F)cc2Cl)nc1C(=O)OC` [F31, Methyl 6-(2-chloro-4-(trifluoromethyl)phenyl)-3-ethynylpicolinate], the pest or weed control at 140 g/ha fell in the range of 0 to 29% under setting [1]; 45 to 59% under setting [2]; 0 to 29% under setting [3]; 0 to 29% under setting [4]; 0 to 29% under setting [5]; 0 to 29% under setting [6]. Also, the pest or weed control at 140 g/ha runs as follows: under setting [7], 0 to 29%; under setting [8], 0 to 29%; under setting [9], 60 to 74%; under setting [10], 0 to 29%; under setting [11], 0 to 29%; under setting [12], 0 to 29%. Also, the pest or weed control at 140 g/ha reads like this: under setting [13], 45 to 59%; under setting [14], 0 to 29%; under setting [15], 0 to 29%.
`COC(=O)c1nc(-c2ccc(C(F)(F)F)cc2Cl)ccc1Br` [F32, Methyl 3-bromo-6-(2-chloro-4-(trifluoromethyl)yl)picolinate]: the pest or weed control at 140 g/ha was in the range of 0 to 29% under setting [1]; 60 to 74% under setting [2]; 0 to 29% under setting [3]; 60 to 74% under setting [4]; 75 to 84% under setting [5]; 0 to 29% under setting [6]. In addition, the pest or weed control at 140 g/ha was 60 to 74% under setting [7]; 0 to 29% under setting [8]; 95 to 100% under setting [9]; 45 to 59% under setting [10]; 0 to 29% under setting [11]; 30 to 44% under setting [12]. In addition, the pest or weed control at 140 g/ha was in the range of 85 to 94% under setting [13], 0 to 29% under setting [14] and 0 to 29% under setting [15].
As for `COC(=O)c1nc(-c2ccc(C(F)(F)F)cc2Cl)c(O)cc1Cl` [F34, methyl 3-chloro-6-(2-chloro-4-(trifluoromethyl)phenyl)-5-hydroxypicolinate], the pest or weed control at 140 g/ha was in the range of 0 to 29% under setting [1]; 0 to 29% under setting [2]; 0 to 29% under setting [3]; 45 to 59% under setting [4]; 0 to 29% under setting [5]; 0 to 29% under setting [6]. Moreover, the pest or weed control at 140 g/ha reads like this: under setting [7], 0 to 29%; under setting [8], 0 to 29%; under setting [9], 0 to 29%; under setting [10], 0 to 29%; under setting [11], 0 to 29%; under setting [12], 0 to 29%. In addition, the pest or weed control at 140 g/ha runs as follows: under setting [13], 0 to 29%; under setting [14], 0 to 29%; under setting [15], 0 to 29%.
In the case of `COC(=O)c1nc(-c2ccc(OC)cc2Cl)ccc1Cl` [F35, Methyl 3-chloro-6-(2-chloro-4-methoxyphenyl) picolinate], the pest or weed control at 140 g/ha is, setting by setting: under setting [1], 0 to 29%; under setting [2], 30 to 44%; under setting [3], 0 to 29%; under setting [4], 0 to 29%; under setting [5], 0 to 29%; under setting [6], 0 to 29%. The pest or weed control at 140 g/ha lay in the range of 0 to 29% under setting [7]; 0 to 29% under setting [8]; 0 to 29% under setting [9]; 0 to 29% under setting [10]; 0 to 29% under setting [11]; 0 to 29% under setting [12]. Also, the pest or weed control at 140 g/ha by setting is: under setting [13], 0 to 29%; under setting [14], 0 to 29%; under setting [15], 0 to 29%.
Take `COC(=O)c1nc(-c2ccc(OC(C)(C)C)cc2Cl)ccc1Cl` [F36, Methyl 6-(4-(tert-butoxy)-2-chlorophenyl)-3-chloropicolinate]: the pest or weed control at 140 g/ha by setting is: under setting [1], 0 to 29%; under setting [2], 0 to 29%; under setting [3], 0 to 29%; under setting [4], 0 to 29%; under setting [5], 0 to 29%; under setting [6], 0 to 29%. Moreover, the pest or weed control at 140 g/ha by setting is: under setting [7], 0 to 29%; under setting [8], 0 to 29%; under setting [9], 0 to 29%; under setting [10], 0 to 29%; under setting [11], 0 to 29%; under setting [12], 0 to 29%. Besides, the pest or weed control at 140 g/ha is, setting by setting: under setting [13], 0 to 29%; under setting [14], 0 to 29%; under setting [15], 0 to 29%.
